From BindingDB's records for doi:10.1016/0922-4106(95)90043-8 (Uppsala, 1995)
pKi: −log10 of the molar value. Non-standard residues stand in square brackets, D forms with d. Residues, ends and D or L forms follow the SMILES beside them. Met(O2) = CS(=O)(=O)CC[C@H](N)C(=O)O

What was measured:
[1] = molecular target: Melanocortin receptor 5 (Homo sapiens, UniProt P33032)
[2] = molecular target: Melanocortin receptor 3 (Homo sapiens, UniProt P41968)
[3] = molecular target: Melanocyte-stimulating hormone receptor (Homo sapiens, UniProt Q01726)
Sequence of Melanocyte-stimulating hormone receptor (Q01726 whole entry): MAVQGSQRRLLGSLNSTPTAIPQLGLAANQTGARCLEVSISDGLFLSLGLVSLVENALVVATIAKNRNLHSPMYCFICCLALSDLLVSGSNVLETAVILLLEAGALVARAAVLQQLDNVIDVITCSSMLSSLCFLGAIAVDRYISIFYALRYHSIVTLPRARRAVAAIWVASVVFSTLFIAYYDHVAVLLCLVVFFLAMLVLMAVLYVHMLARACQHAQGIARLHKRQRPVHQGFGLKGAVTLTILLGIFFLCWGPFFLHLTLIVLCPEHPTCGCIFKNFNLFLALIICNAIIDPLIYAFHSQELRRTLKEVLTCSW

Sequence of Melanocortin receptor 5 (P33032 whole entry): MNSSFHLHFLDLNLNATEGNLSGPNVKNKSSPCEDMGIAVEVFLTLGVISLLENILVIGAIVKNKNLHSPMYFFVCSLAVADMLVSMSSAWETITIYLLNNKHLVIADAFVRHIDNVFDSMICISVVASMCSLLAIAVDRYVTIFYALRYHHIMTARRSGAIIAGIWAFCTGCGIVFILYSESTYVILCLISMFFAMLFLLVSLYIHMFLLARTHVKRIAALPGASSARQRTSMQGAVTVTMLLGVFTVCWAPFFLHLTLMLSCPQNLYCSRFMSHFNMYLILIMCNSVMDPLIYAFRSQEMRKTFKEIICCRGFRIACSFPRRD
Sequence of Melanocortin receptor 3 (P41968 whole entry): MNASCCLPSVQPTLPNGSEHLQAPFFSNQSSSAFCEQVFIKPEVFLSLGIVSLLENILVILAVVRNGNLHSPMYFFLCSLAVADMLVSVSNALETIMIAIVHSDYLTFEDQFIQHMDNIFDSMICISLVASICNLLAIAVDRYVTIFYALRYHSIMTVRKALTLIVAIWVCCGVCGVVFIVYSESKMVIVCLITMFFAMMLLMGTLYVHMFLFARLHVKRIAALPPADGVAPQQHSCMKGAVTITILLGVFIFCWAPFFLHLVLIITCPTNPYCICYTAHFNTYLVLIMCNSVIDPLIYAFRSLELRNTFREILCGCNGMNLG

Compound | pKi [1] | pKi [2] | pKi [3]
CSCC[C@H](NC(=O)[C@@H](NC(=O)[C@@H](N)Cc1ccc(O)cc1)C(C)C)C(=O)NCC(=O)N[C@@H](Cc1cnc[nH]1)C(=O)N[C@@H](Cc1ccccc1)C(=O)N[C@@H](CCCN=C(N)N)C(=O)N[C@@H](Cc1c[nH]c2ccccc12)C(=O)N[C@@H](CC(=O)O)C(=O)N[C@@H](CCCN=C(N)N)C(=O)N[C@@H](Cc1ccccc1)C(N)=O [Gamma1-MSH] |  |  | 8.57
H-SYSMEHFRWGKPVGKKRRPVKVYPNGAEDESAEAFPLEF-OH [ACTH] | < 5.00 | 7.06 | 8.60
H-YVMGHFRWDRFGRRNGSSSSGVGGAAQ-OH [Gamma3-MSH] | < 5.00 | 7.96 | 8.86

Further lines, results first:

pKi [1] | pKi [2] | pKi [3] | Compound
< 5.00 | 6.84 |  | CSCC[C@H](NC(=O)[C@H](CO)NC(=O)[C@H](Cc1ccc(O)cc1)NC(=O)[C@@H](N)CO)C(=O)N[C@@H](CCC(=O)O)C(=O)N[C@@H](Cc1cnc[nH]1)C(=O)N[C@@H](Cc1ccccc1)C(=O)N[C@@H](CCCNC(=N)N)C(=O)N[C@@H](Cc1c[nH]c2ccccc12)C(=O)NCC(N)=O [ACTH-(1-10)]
< 5.00 | < 5.00 | < 5.00 | CS(=O)(=O)CC[C@H](N)C(=O)N[C@@H](CCC(=O)O)C(=O)N[C@@H](Cc1c[nH]cn1)C(=O)N[C@@H](Cc1ccccc1)C(=O)N[C@H](CCCCN)C(=O)N[C@@H](Cc1ccccc1)C(=O)O [CAS_50913-82-1] (H-[Met(O2)]EHF[dK]F-OH)
< 5.00 | 6.11 | 6.97 | CSCC[C@H](N)C(=O)N[C@@H](CCC(=O)O)C(=O)N[C@@H](Cc1cnc[nH]1)C(=O)N[C@@H](Cc1ccccc1)C(=O)N[C@@H](CCCNC(=N)N)C(=O)N[C@@H](Cc1c[nH]c2ccccc12)C(=O)NCC(N)=O [NSC_123787]
< 5.00 | < 5.00 | < 5.00 | H-SMEVRGW-OH [delta MSH]
